Entries after “also recorded” stand apart in the source; their conditions may differ.
Key:
[1] = tested on: rat hindpaw incisional model; assay: Rat hindpaw incisional pain model, tactile allodynia; type: in vivo; settings: for antiallodynic effect over time: tested 30, 60, 120, 240 minutes
Protocol: Protocol. A time course experiment was performed with beloxepin in the hindpaw incision model. […] Protocol. […] Protocol.

5HT2C receptor = target: T1, 5HT2C receptor (Homo sapiens, UniProt P28335); settings: published report; cited from earlier work
T1 sequence (P28335 33-458): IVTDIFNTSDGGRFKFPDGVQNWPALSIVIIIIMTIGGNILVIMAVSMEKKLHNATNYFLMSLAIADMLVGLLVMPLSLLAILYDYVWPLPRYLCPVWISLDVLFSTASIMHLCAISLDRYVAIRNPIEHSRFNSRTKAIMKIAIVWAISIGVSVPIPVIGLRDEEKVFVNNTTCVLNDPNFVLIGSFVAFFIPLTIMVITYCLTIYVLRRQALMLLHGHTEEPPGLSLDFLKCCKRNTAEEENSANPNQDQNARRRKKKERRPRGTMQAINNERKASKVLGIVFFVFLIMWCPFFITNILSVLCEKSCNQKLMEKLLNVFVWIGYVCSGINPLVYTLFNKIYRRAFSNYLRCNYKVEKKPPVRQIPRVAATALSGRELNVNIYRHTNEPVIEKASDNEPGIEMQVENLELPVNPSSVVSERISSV

L5 SNL rats [2] = assay: L5 SNL model of neuropathic pain, tactile allodynia (von Frey); type: in vivo, rat; settings: for antiallodynic effect over time, oral: 60 mg/kg PO
Male Sprague-Dawley rats = assay: Rat hot plate model of acute nociceptive pain; type: in vivo; settings: 30 and 60 mg/kg IP, 50° C. hot plate (FIGS. 6A, 6B)
Protocol: Protocol. […] For the experiment, rats were acclimated to a 50° C. hot plate apparatus by gently placing them on the hot plate with all four paws on the surface. A timer was started and the latency (in seconds) until the rat licked any of its paws was measured. A 60 second cut-off to elicit a response was set to prevent tissue damage to the paws. After the rats elicited the paw lick response, they were removed from the apparatus and returned to their home cages for at least 30 minutes. Baseline paw lick latencies were determined prior to drug treatments in an identical manner to the acclimation test. Following drug treatments, the rats were placed on the hot plate apparatus at the appropriate time and treatment paw lick latencies were determined. All test groups contained at least six animals.

[3] = cited from earlier work
L5 SNL rats [4] = assay: L5 SNL model of neuropathic pain, tactile allodynia (von Frey); type: in vivo, rat
Protocol: Protocol. […] Neurosci. Methods 144:175-181. The test animals were placed in a Plexiglas chamber (10 cm×20 cm×25 cm) and habituated for 15 minutes. The chamber was positioned on top of a mesh screen so that von Frey monofilaments could be presented to the plantar surface of both hindpaws. Measurement of tactile sensitivity for each hind paw were obtained using the up/down method (Dixon, 1980, Annu Rev. Pharmacol. […] Each trial started with a von Frey force of 2 grams delivered to the right hind paw for approximately 1-2 seconds and then the left hind paw. If there was no withdrawal response, the next higher force was delivered. If there was a response, the next lower force was delivered. This procedure was performed until no response was made at the highest force (15 grams) or until four stimuli were administered following the initial response. The 50% paw withdrawal threshold for each paw was calculated using the following formula: […] Testing for tactile sensitivity was performed twice and the mean 50% withdrawal value assigned as the tactile sensitivity for the right and left paws for each animal. All test groups contained at least six animals. Protocol. […] In the experiment, animals were tested for tactile allodynia at 30 min post treatment. The sham-operated control group, which were operated on but not subject to nerve ligation, contained 4 animals. The treatment group contained at least six animals. Protocol. […] All test groups contained at least six animals. Protocol. […] The data obtained are depicted in FIG. 11.

human volunteers = settings: 25-400 mg, cited from earlier work
CYP2D6 [5] = target: T2, CYP2D6 (Homo sapiens, UniProt P10635); assay: CYP2D6 inhibition (dextromethorphan O-demethylation) in human hepatic microsomes; type: in vitro ADME; settings: pooled male human hepatic microsomes
T2 construct: purchased BD Bioscience
T2 sequence (P10635 whole entry): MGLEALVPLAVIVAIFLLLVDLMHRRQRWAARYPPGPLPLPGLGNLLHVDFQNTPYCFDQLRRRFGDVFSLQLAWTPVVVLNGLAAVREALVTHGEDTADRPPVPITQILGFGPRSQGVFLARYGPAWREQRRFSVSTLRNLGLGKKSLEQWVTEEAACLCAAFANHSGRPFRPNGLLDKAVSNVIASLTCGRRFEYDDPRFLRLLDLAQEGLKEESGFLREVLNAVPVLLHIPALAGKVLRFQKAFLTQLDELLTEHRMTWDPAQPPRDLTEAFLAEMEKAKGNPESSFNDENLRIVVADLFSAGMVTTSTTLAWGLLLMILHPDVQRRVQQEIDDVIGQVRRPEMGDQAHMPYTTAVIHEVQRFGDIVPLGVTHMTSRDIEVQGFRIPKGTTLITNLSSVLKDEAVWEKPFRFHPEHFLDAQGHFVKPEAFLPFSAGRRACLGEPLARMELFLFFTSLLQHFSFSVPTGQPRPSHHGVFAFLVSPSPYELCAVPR
Protocol: The 200 μL incubations were conducted in duplicate in 0.1 M potassium phosphate buffer (pH 7.4) with 0.02 mg of microsomal protein, 3 mM MgCl2, 1 mM EDTA and 7.5 μM of the probe substrate dextromethorphan in a 96-well polypropylene plate maintained at 37° C. After a 3-minute pre-incubation, the reaction was initiated with the addition of 2 mM NADPH. Upon completion of the 10-minute incubation period, aliquots of 100 μL were removed and added to a new plate containing 100 μL of internal standard in acidified acetonitrile to stop the reaction. The quenched samples were vortexed and the precipitated protein was removed by centrifugation. Supernatant aliquots of 100 μL were transferred to LC vials and 5 μL were injected onto the HPLC system for LC/MS/MS analysis of the metabolite dextrorphan. Standards and quality control samples were similarly prepared using authentic dextrorphan standards.
Dexthorphan concentrations were determined by high performance liquid chromatography with tandem mass spectrometric detection (LC/MS/MS) after protein precipitation with acidified acetonitrile containing internal standard. Separations were performed with a Flux Rheos 2000 quaternary pump (Leap Technologies, Inc., Carrboro, N.C.) using an XTerra® MS C18, 3.5 μm, 4.6×50 mm column (Waters Corporation, Milford, Mass.). […]

CYP2D6 [6] = target: T2, CYP2D6; assay: CYP2D6 inhibition screening, recombinant enzyme, MAMC substrate; type: in vitro ADME
Protocol: Protocol. […] The source of the enzyme was microsomes containing human recombinant CYP2D6 obtained from BD Bioscience. Conversion of MAMC to 7-hydroxy-4-(aminomethyl)coumarin was measured using a PerkinElmer Fusion with a 390 nm excitation filter and a 460 nm emission filter.

FCA-treated rats = assay: FCA-induced mechanical hyperalgesia (inflammatory pain); type: in vivo, rat
Protocol: Protocol. […] For the assay, the methods of DeHaven-Hudkins et al., 1999, J. Pharmacol. Exp. Ther. 289:494-502 were used to determine mechanical hyperalgesia in rats 24 hours after intraplantar administration of 150 μL Freund's Complete Adjuvant (FCA). To determine paw pressure thresholds, the rats were lightly restrained in a gauze wrap and pressure was applied to the dorsal surface of the inflamed and uninflamed paw with a conical piston using a pressure analgesia apparatus (Stoelting Instruments, Wood Dale, Ill.). […] Paw pressure thresholds were determined before and at specified times after drug treatment. All test groups contained at least six animals. Protocol. A sample of (±)-beloxepin was prepared by milling the isolated (+)-beloxepin and (−)-beloxepin enantiomers together, bringing them up in solvent, and then removing the solvent (“Lot 9”). In this experiment, 30 mg/kg of (±)-beloxepin (“Lot 7”) or 30 mg/kg of the reconstituted racemic mixture (Lot 9) was administered in rats treated with FCA for 24 hours. Thirty minutes after treatment with vehicle, (±)-beloxepin, or reconstituted racemic mixture, paw pressure thresholds were determined. Thirty minutes is the time of peak mechanical antihyperalgesia of (±)-beloxepin.

male ICR mice = assay: Acetic acid-induced writhing (visceral pain); type: in vivo, mouse
Protocol: Protocol. […] Five minutes after treatment with acetic acid, the number of writhes was counted for 10 min. A writhe is defined as the extension of both front and hind limbs with a concave stretch of the abdomen. The mean number of writhes was determined for each treatment group and the percent inhibition of the vehicle response was calculated using the following formula: […]

noradrenaline reuptake = settings: synaptosomes from rat and primate brain; cited from earlier work
[7] = single dose, 10 to 500 mg; cited from earlier work
[8] = tested on: noradrenergic, histaminergic and cholinergic receptors; settings: published report; cited from earlier work
major depression = settings: subsequent clinical trials; cited from earlier work
[9] = tested on: patients hospitalized for depression; settings: phase IIA; cited from earlier work
[10] = tested on: animal models of depression; settings: preclinical models of depression; cited from earlier work
pain intensity = settings: study completers, double-blind placebo-controlled; cited from earlier work

Structure (SMILES): Cc1cccc2c1Oc1ccccc1C1(O)CCN(C)CC21 (racemic) [beloxepin, cis-1,2,3,4,4a,13b-hexahydro-2,10-dimethyldiben-[2,3:6,7]oxepino[4,5c]pyridine-4a-ol]]
- maximum hindpaw withdrawal threshold ([1]; 3 mg/kg IV, 24 hours post-surgery, 30 minute time point (FIG. 14)): ~21 grams
- antiallodynic effect over time ([1]; 3 mg/kg IV): significant antiallodynic effect at the 30 and 120 minute time points
- maximum threshold, % of the threshold value for vehicle treated rats ([1]; 30 mg/kg IP, 30 minute time point (FIG. 12)): 544%
- maximum hindpaw withdrawal threshold ([1]; 30 mg/kg IP, 24 hours post surgery, 30 minute time point (FIG. 12)): ~29 grams
- antiallodynic effect over time ([1]; 30 mg/kg IP): significant antiallodynic effect at all four time points
- maximum hindpaw withdrawal threshold ([1]; 60 mg/kg PO, 24 hours post-surgery, 30 and 60 minute time points (FIG. 13)): ~24 grams
- antiallodynic effect over time ([1]; 60 mg/kg PO): significant antiallodynic effect at all four time points
- 3 mg/kg IV dose lower than a dose that produced a significant respiratory or cardiovascular side effect ([1]; IV, rats): 10 fold
- affinity for the 5HT2C receptor (5HT2C receptor): modest affinity
- tactile antiallodynic effect, % of that observed with sham-operated animals (L5 SNL rats [2]; 30 mg/kg IP (FIG. 2)): ~100%
- observed mean threshold (L5 SNL rats [2]; 30 mg/kg IP (FIG. 3)): approximately 15 g
- maximal antiallodynic effect, % of the threshold of vehicle-treated rats (L5 SNL rats [2]; 30 mg/kg IP, 14 days post surgery, 30 min post treatment (FIG. 1)): 829%
- antiallodynic effect over time (L5 SNL rats [2]; 30 mg/kg IP, 14 days post surgery, tested 30, 60, 120, 240 min): significant antiallodynia effects at the 30, 60 and 120 min time points
- antiallodynic effect, % of the threshold for vehicle-treated rats (L5 SNL rats [2]; 30 mg/kg IP, 16 days post surgery, 30 min post treatment (FIG. 2)): 852%
- antiallodynic effect over time, oral (L5 SNL rats [2]; 7 days post surgery, tested 30, 60, 120, 240 min (FIG. 10)): significant antiallodynic effects at all four time points
- antiallodynic effect over time, oral (L5 SNL rats [2]; 8 days post surgery, tested 30, 60, 120, 240 min (FIG. 4)): significant and robust antiallodynic effects at the 30 and 60 min time points
- antiallodynic effect compared with duloxetine, amitriptyline, reboxetine (L5 SNL rats [2]; each 30 mg/kg IP (FIG. 5)): the most effective of the compounds tested
- anti-nociceptive activity (paw lick latency) (Male Sprague-Dawley rats): nearly as effective as 3 mg/kg morphine; also recorded: almost equivalent to that of 3 mg/kg morphine
- t1/2, steady state ([3]; healthy normal subjects, 50 to 800 mg): 12 to 14 h
- adverse effects in healthy volunteers ([3]; up to 800 mg/day): No important adverse effects were observed
- side effects following treatment (L5 SNL rats [4]; 30 mg/kg IP, L5 SNL rats): No side effects were observed
- antiallodynic efficacy compared with duloxetine (L5 SNL rats [4]; each 30 mg/kg IP (FIG. 11)): comparable in efficacy to duloxetine
- peak antiallodynic effect compared with esreboxetine (L5 SNL rats [4]; each 30 mg/kg IP (FIG. 11)): greater than that measured in rats treated with esreboxetine
- total duration of nocturnal REM sleep (human volunteers; EEG): decreased total duration of nocturnal REM sleep
- REM latency (human volunteers; acutely and sub-chronically, EEG): dose-dependently prolonged REM latency
- sedation or other side effects in sleep studies (human volunteers; human volunteers): No sedation or other side effects were observed
- IC50 (CYP2D6 [5]): 31.7 µM
- IC50 (CYP2D6 [6]; human recombinant CYP2D6 microsomes, read-out: CYP2D6 IC50 (initial screening, MAMC substrate)): 0.536 µM
- inhibition at 10 µM (CYP2D6 [6]; human, probe 7-methoxy-4-(aminomethyl)-coumarin (MAMC)): 97%
- reversal of FCA-induced hyperalgesia (FCA-treated rats; 30 mg/kg (FIG. 7)): nearly completely reversed hyperalgesia; also recorded: nearly complete reversal of hyperalgesia
- mechanical antihyperalgesic efficacy (FCA-treated rats; 30 mg/kg IP, 24 hours after FCA, 30 min after treatment (FIG. 9)): 96±16%
- ED50 (male ICR mice; Mus musculus, oral, 25 min prior to 0.6% acetic acid IP (FIG. 8), read-out: ED50 inhibition of acetic acid-induced writhing): 13.3 mg/kg
- inhibition of acetic acid-induced writhing, dose dependence (male ICR mice; oral (FIG. 8)): dose-dependent fashion
- affinity for other monoamine carriers (serotonin and dopamine transporters) less than for noradrenaline reuptake (noradrenaline reuptake): greater than 100 fold
- t1/2 [7]: 11 to 15 h
- tmax [7]: one to four
- affinity for noradrenergic, histaminergic and cholinergic receptors [8]: no or very weak affinity
- efficacy for the treatment of major depression (major depression): insufficient efficacy
- fraction of patients with a moderate to good response (HAMD score reduction) [9]: ⅔
- sedation, motor impairment, side effects in animal tests [10]: did not cause sedation, motor impairment or other untoward side effects

Structure (SMILES): CNCCCC12CCC(c3ccccc31)c1ccccc12 [maprotiline]
- reduction in pain intensity (pain intensity): 45%

Structure (SMILES): Fc1ccc([C@@H]2CCNC[C@H]2COc2ccc3c(c2)OCO3)cc1 [paroxetine]
- reduction in pain intensity (pain intensity): 26%
